Data as given in article PMC2360547 (British Journal of Cancer, 2006).
Values joined by “and” are separate entries in the source; they are usually repeats but may differ in a detail not shown here. Identical values can stand only once. Like-named read-outs stand apart in the source and are kept apart here.

Legend:
[1] = Plasma concentrations by HPLC with fluorescence detection; format: in vivo, human; details: for concentration at 28 day: human, plasma, oral, 75 mg tid, 12 subjects, about 1 month of 75 mg tid; for Plasma concentrations: individual subjects, sampling day 27-30, midostaurin 75 mg tid
Description: (§1) Therefore, the tumour tissue was frozen and cut into as small as possible pieces with a scalpel. The pieces were weighed, added to 1 ml of water, vortexed and thereafter treated like plasma. The assay for plasma samples was validated with acceptable calibration curves, within-study variability and total recovery. […] Due to limited availability of tumour tissue, the within-study validation for tumour assay was not performed.

[2] = Tumour tissue concentrations by HPLC with fluorescence detection; format: in vivo, human; details: for Kp at 28 day / concentration at 28 day: human, oral, 10 subjects; for Kp at 28 day: tumour tissue / plasma, 75 mg three times a day; for Kp at 28 day / Tissue/plasma ratios: tumour tissue to plasma; for concentration at 28 day / Tissue concentrations: tumour tissue, about 1 month of 75 mg tid; for concentration at 28 day: 75 mg tid; for Tissue/plasma ratios / Tissue concentrations: individual subjects
Description: as §1

[3] = design: method as in Propper et al, 2001; details: Phase I trial, oral; ref Propper et al, 2001; cited from earlier work
PKC isotypes = details: metabolites, compared with parent drug; no reference given; read-out: IC50 against PKC isotypes; cited from earlier work
[4] = read-out: Plasma concentrations, maximum
[5] = read-out: Plasma concentrations, mean
[6] = read-out: Plasma concentrations, median
[7] = read-out: Plasma concentrations, minimum
[8] = read-out: Tissue/plasma ratios, maximum
[9] = read-out: Tissue/plasma ratios, mean
[10] = read-out: Tissue/plasma ratios, median
[11] = read-out: Tissue/plasma ratios, minimum
[12] = read-out: Tissue concentrations, maximum
[13] = read-out: Tissue concentrations, mean
[14] = read-out: Tissue concentrations, median
[15] = read-out: Tissue concentrations, minimum

SMILES | concentration at 28 day [1, 4] [µM] | concentration at 28 day [1, 5] [µM] | concentration at 28 day [1, 6] [µM] | concentration at 28 day [1, 7] [µM] | Plasma concentrations [1] | Kp at 28 day [2, 8] | Kp at 28 day [2, 9] | Kp at 28 day [2, 10] | Kp at 28 day [2, 11] | concentration at 28 day [2, 12] [µM] | concentration at 28 day [2, 13] [µM] | concentration at 28 day [2, 14] [µM] | concentration at 28 day [2, 15] [µM] | Tissue/plasma ratios [2] | Tissue concentrations [2] | Estimated median elimination t1/2 [3] [days] | IC50 (PKC isotypes) [nM]
CO[C@@H]1[C@H](N(C)C(=O)c2ccccc2)C[C@H]2O[C@]1(C)n1c3ccccc3c3c4c(c5c6ccccc6n2c5c31)C(=O)NC4O (single isomer, unassigned) [CGP52421 (e2)] | 22.4 | 17.3 | 18.4 | 10.8 | 19.151 µM and 16.633 µM and 11.311 µM and 18.383 µM and 19.519 µM and 18.475 µM and 22.448 µM and 13.352 µM and 10.767 µM and 15.869 µM and 20.34 µM and 20.944 µM | 0.153 | 0.085 | 0.083 | 0.033 | 3.21 | 1.51 | 1.52 | 0.635 | 0.03 and 0.09 and 0.07 and 0.06 and 0.12 and 0.08 and 0.11 and 0.05 and 0.15 | 635 nM and 1528 nM and 789 nM and 1031 nM and 2367 nM and 1569 nM and 1503 nM and 776 nM and 1644 nM and 3212 nM | 36 | 
CN(C(=O)c1ccccc1)[C@@H]1C[C@H]2O[C@@](C)([C@@H]1O)n1c3ccccc3c3c4c(c5c6ccccc6n2c5c31)C(=O)NC4 [CGP 62221] | 10.1 | 5.36 | 5.43 | 2.47 | 4.66 µM and 3.227 µM and 2.474 µM and 7.205 µM and 5.723 µM and 6.061 µM and 10.132 µM and 2.995 µM and 5.761 µM and 5.28 µM and 5.265 µM and 5.586 µM | 0.42 | 0.21 | 0.2 | 0.04 | 2.35 | 0.99 | 0.71 | 0.175 | 0.04 and 0.19 and 0.21 and 0.11 and 0.35 and 0.34 and 0.12 and 0.22 and 0.42 | 175 nM and 609 nM and 523 nM and 759 nM and 2006 nM and 661 nM and 1022 nM and 651 nM and 1143 nM and 2353 nM |  | 120
CO[C@@H]1[C@H](N(C)C(=O)c2ccccc2)C[C@H]2O[C@]1(C)n1c3ccccc3c3c4c(c5c6ccccc6n2c5c31)C(=O)N[C@H]4O [CGP52421] |  |  | 18.4 |  |  |  |  | 0.083 |  |  |  | 1.52 |  |  |  |  | 50
